Laboratory results as given in patent US11202792B2, “CD99 inhibitors and their uses” (GEORGETOWN UNIVERSITY, priority 2016, dated 2021).

Assays:
CD99 protein = target: T1, CD99 protein (Homo sapiens, UniProt P14209); test: Cellular thermal shift assay (CETSA) in TC-71 cell lysates; type: binding; conditions: 3.0 μmol/L, 30 min, high temperatures vs control lysates
T1 construct: The thermostability of endogenous CD99 protein increased in cell lysates from TC-71 cells; endogenous in cells; host or cells: TC-71 total cell lysate
Protocol: The CETSA method was used according to Martinez Molina et al. (“Monitoring drug target engagement in cells and tissues using the cellular thermal shift assay,” Science 341: 84-87 (2013)) and Jafari et al. (“The cellular thermal shift assay for evaluating drug target interactions in cells,” Nat Protoc 9:2100-22 (2014)). […] The cell lysates in 60 μL volumes were individually heated in thin wall PCR tubes to the indicated temperatures for 3 min, by using Veriti 96-well Thermal Cycler (Applied Biosystems (Foster City, Calif.)). Samples were then centrifuged at 16,000×g for 30 min at 4° C. to remove insoluble proteins, and 40 ul of the resulting supernatants were transferred into new eppendorf tubes for subsequent SDS-PAGE and immunoblotting analysis.

[1] = tested on: ES cell lines RDES and TC-71; test: Secondary functional screen, growth inhibition in ES cell lines; type: cell-based; conditions: Homo sapiens; 10 μmol/L, 48 h, WST-1
U-2 OS cells = test: Secondary functional screen, negative control cell line; type: cell-based; conditions: Homo sapiens, U2OS; 10 μmol/L, 48 h, WST-1; read-out: growth inhibition of OS cell lines (U-2 OS)
A4573 ES cells = test: Cell viability IC50 (WST-1), A4573; type: cell-based, human; conditions: Homo sapiens, WST-1, 48 h (FIG. 10B)
[2] = tested on: MG63.3 OS cells transfected with DCK siRNA; test: Response to clofarabine after DCK siRNA, OS cells; type: cell-based, human; conditions: MG63.3, DCK siRNA
Excerpt: (§4) The expression of DCK and CD99 was suppressed transiently by using a validated small interfering RNA (siRNA) duplexes targeting coding region (Invitrogen (Carlsbad, Calif.); #s186 and #s8768, respectively). Silencer™ Select Negative Control No. 2 siRNA (Invitrogen) was used as the control. Cells were transfected with DCK or CD99 or control siRNA oligonucleotides using X-tremeGene siRNA transfection reagent (Roche Diagnostics (Basel, Switzerland)) according to the manufacturer's protocol. The cells were analyzed for DCK and CD99 knockdown after 45 or 72 h by immunoblotting.

[3] = tested on: TC-32 ES cells transfected with DCK siRNA; test: Response to clofarabine after DCK siRNA, ES cells; type: cell-based, human; conditions: TC-32, DCK siRNA
Excerpt: as §4

A4573 xenografts = test: Orthotopic A4573 xenograft, i.p. administration; type: in vivo, SCID/beige mice
Protocol: (§1) All tumor tissues were fixed in 10% neutral buffered formalin for 24 h, dehydrated through a graded series of alcohols and cleared in xylenes prior to embedding in paraffin. Embedded tissues were cut into 5 μm thick sections and stained with hematoxylin and eosin (H&E). Immunohistochemical staining was performed for CD99 and caspase 3 (cleaved). Five micron sections from formalin fixed paraffin embedded tissues were de-paraffinized with xylenes and rehydrated through a graded alcohol series. Heat induced epitope retrieval was performed by immersing the tissue sections at 98° C. for 60 min in 10 mmol/L citrate buffer (pH 6.0). Immunohistochemical staining was performed using a horseradish peroxidase labeled polymer from Agilent (Santa Clara, Calif.) (#K4001, #K4003) according to manufacturer's instructions. Briefly, slides were treated with 3% hydrogen peroxide and 10% normal goat serum for 10 min each, and exposed to primary antibodies for CD99 (Abcam, #ab8855) at a 1:100 dilution and for caspase 3 (cleaved) (Biocare (Pacheco, Calif.), #CP229A) at a 1:90 dilution in Da Vinci Green for one hour and stained on an DAKO Autostainer. Slides were exposed to the appropriate HRP labeled polymer for 30 min and DAB chromogen (Dako (Santa Clara, Calif.) for 5 min. Slides were counterstained with Hematoxylin (Fisher, Harris Modified Hematoxylin), blued in 1% ammonium hydroxide, dehydrated, and mounted with Acrymount. Consecutive sections with the primary antibody omitted were used as negative controls. The sections were evaluated in a blinded fashion by a board certified pathologist.
The antitumor activity of drugs through intraperitoneal (i.p.) administration given once daily was determined. […] The in vivo potencies of drug treatments were evaluated by event-free survival curves, where tumors that reached 1.0 cm^3 in size considered an event.

TC-71 xenografts = test: Orthotopic TC-71 xenograft, oral administration; type: in vivo, SCID/beige mice
Protocol: as §1
In this study, reduction in number of mitotic figures and increase in caspase-3 staining was less prominent. […] Therefore, when the animals were euthanized for tumor regrowth they were not receiving any clofarabine. Their last dose of clofarabine was more than two week before the tissue harvest.

[4] = tested on: MSK1/2 phosphorylation in STA-ET-7.2 and TC-32 cells; test: MSK1/2 phosphorylation by immunoblot, ES cells; type: cell-based, human; conditions: 0.6 μmol/L (STA-ET-7.2) or 0.5 μmol/L (TC-32), 24 h, vs vehicle
Protocol: (§2) In a parallel set of experiment, cells were also treated with 15 μg/mL of either mouse control IgM or CD99 blocking antibody for the same duration. Total cell lysates were analyzed by immunoblotting for MSK1/2 phosphorylation. […] In a parallel set of experiment, cells were transfected with either siRNA control or siRNA targeting the coding region of CD99 protein. Total cell lysates were analyzed after 48 h by immunoblotting for MSK1/2 phosphorylation after cell transfection. […] In FIG. 23D, SCID/beige mice were implanted with TC-71 xenografts in their tibia. […] Tumor lysates were analyzed by immunoblotting for MSK1/2 phosphorylation.
(§3) Quantitative analysis of protein bands was performed using ImageJ 1.48v software. Immunoblotting was performed as described above.

[5] = tested on: MSK1/2 phosphorylation in MG63.3 and U-2 OS cells; test: MSK1/2 phosphorylation by immunoblot, OS cells; type: cell-based, human; conditions: 1.0 μmol/L, 24 h
Protocol: as §2, §3

T1 sequence (P14209 23-185): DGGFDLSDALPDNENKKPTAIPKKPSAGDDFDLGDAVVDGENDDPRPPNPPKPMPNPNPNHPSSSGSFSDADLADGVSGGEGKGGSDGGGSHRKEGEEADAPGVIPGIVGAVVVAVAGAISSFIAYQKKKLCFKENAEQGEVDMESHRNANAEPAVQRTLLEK

SMILES: Nc1nc(Cl)nc2c1ncn2[C@@H]1O[C@H](CO)[C@@H](O)[C@@H]1F [clofarabine]
- thermostability of endogenous CD99 protein (CD99 protein): increased
- inhibition at 10 µM [1]: ≥ 70%
- inhibition at 10 µM (U-2 OS cells): ≤ 10%
- IC50 (A4573 ES cells): 310 nM
- response after inhibiting DCK protein expression [2]: complete resistance
- response after inhibiting DCK protein expression [3]: shift to the right of the IC50 curve
- mitotic figures per field (A4573 xenografts; H&E, 200-fold magnification): ≤ 3
- apoptotic cells (A4573 xenografts; H&E, confirmed by caspase-3 immunohistochemistry): significant increase
- event-free survival (A4573 xenografts; i.p. once daily, clofarabine 30 mg/kg, vs vehicle): significantly improved
- tumor growth (A4573 xenografts; i.p., clofarabine 30 mg/kg): significant inhibition of tumor growth
- mitotic figures (TC-71 xenografts; TC-71 xenograft harvested after 2 days of 30 mg/kg oral): complete loss
- apoptotic cells (TC-71 xenografts; TC-71 xenograft harvested after 2 days of 30 mg/kg oral, H&E, caspase-3): significant increase
- phosphorylation levels of MSK1/2 in tumors (TC-71 xenografts; TC-71 xenograft, oral 30 mg/kg for two days, three out of four mice): significant increase
- tumor growth (TC-71 xenografts; TC-71 xenograft, 30 mg/kg orally once daily 14 days, compared to i.p. administration): more significant inhibition of tumor growth
- median event-free survival (TC-71 xenografts; TC-71 xenograft, 30 mg/kg orally once daily for 14 days, vehicle 7 days, p<0.0001): 33 days
- phosphorylation levels of MSK1/2 [4]: significantly elevated
- phosphorylation levels of MSK1/2 [5]: Neither MG63.3 nor U2-OS cells showed a response
